# Data from publication PMC6216040, “Repurposing of an old drug: In vitro and in vivo efficacies of buparvaquone against Echinococcus multilocularis” (International Journal for Parasitology: Drugs and Drug …, 2018).
# Where two headings read alike, the source gives them in different places.
# Columns and labels:
# [1] = test system: E. multilocularis metacestodes; conditions: cited from earlier work; for effect in vitro against E. multilocularis metacestodes: ref Reuter et al.
# [2] = test system: E. multilocularis metacestodes; assay: PGI-assay: drug-induced damage on in vitro cultured metacestodes (Pathogen Box screening cascade and EC50); format: cell-based, Echinococcus multilocularis; conditions: for PGI release, % of Tx-100 control, average, 5d / PGI release, % of Tx-100 control, average, 12d: 1 µM; for activity in the screen at 10 μM (confirmed in triplicates, >20% relative PGI release): 5 and 12 days; for cytotoxicity at 10 µM / PGI release, % of Tx-100 control at 10 µM: Echinococcus multilocularis; for cytotoxicity at 10 µM / PGI release, % of the Tx-100 control, 5d / PGI release, % of the Tx-100 control, 12d: singlets, 10 µM; for PGI release, % of Tx-100 control at 10 µM: confirmatory screening at 10 µM in triplicates, values as % of Tx-100 control; for activity in the screen at 10 μM (confirmed in triplicates, >20% relative PGI release) / activity in the present in vitro screen (threshold 20% relative activity compared to Tx-100): 10 μM
# [3] = triplicates, 5 days of incubation
# [4] = triplicates, 12 days of incubation
# [5] = 120 h, 5 days of incubation, read-out: PGI release, % of the Tx-100 control, 5d
# [6] = 120 h, 5 days of incubation, read-out: PGI release, % of Tx-100 control, average, 5d
# [7] = 288 h, 12 days of incubation, read-out: PGI release, % of the Tx-100 control, 12d
# [8] = 288 h, 12 days of incubation, read-out: PGI release, % of Tx-100 control, average, 12d
smiles,measurement,setting,value
"OC(c1cc(C(F)(F)F)nc2c(C(F)(F)F)cccc12)C1CCCCN1 (centres unmarked) [MMV000016, Mefloquine, reference compound]",IC50,"[1]; ref Stadelmann et al., 2011, Küster et al., 2011, 2015, Rufener et al., 2018, read-out: IC50 value against this parasite in vitro",> 30 µM
same,"PGI release, % of Tx-100 control, average, 5d",[2]; [3],0.24%
same,"PGI release, % of Tx-100 control, average, 12d",[2]; [4],8.91%
same,"activity in the screen at 10 μM (confirmed in triplicates, >20% relative PGI release)",[2],active
same,"activity in the screen at 10 μM (confirmed in triplicates, >20% relative PGI release)",[2]; listed as Mefloquine,identified in our screening
same,cytotoxicity at 10 µM,[2]; [5],16.9%
same,"PGI release, % of Tx-100 control at 10 µM",[2]; [6],7.4%
same,cytotoxicity at 10 µM,[2]; [7],23.3%
same,"PGI release, % of Tx-100 control at 10 µM",[2]; [8],47.4%
"COC(=O)Nc1nc2ccc(C(=O)c3ccccc3)cc2[nH]1 [MMV003152, Mebendazole, reference compound]",concentration inhibiting parasite proliferation,"[1]; three weeks treatment, ref Jura et al., 1998",1 µM
same,cytotoxicity at 10 µM,[2]; [5],1.28%
same,cytotoxicity at 10 µM,[2]; [7],11.9%
"CO[C@H]1/C=C/O[C@@]2(C)Oc3c(C)c(O)c4c(O)c(c(/C=N/N5CCN(C)CC5)c(O)c4c3C2=O)NC(=O)/C(C)=C\C=C\[C@H](C)[C@H](O)[C@@H](C)[C@@H](O)[C@@H](C)[C@H](OC(C)=O)[C@@H]1C [MMV688775, Rifampicin, reference compound]",effect in vitro against E. multilocularis metacestodes,[1]; 2006,ineffective
same,activity in the present in vitro screen (threshold 20% relative activity compared to Tx-100),[2],inactive
same,cytotoxicity at 10 µM,[2]; [5],-0.7%
same,cytotoxicity at 10 µM,[2]; [7],-1.35%
"CC1COC(Cn2cncn2)(c2ccc(Oc3ccc(Cl)cc3)cc2Cl)O1 (centres unmarked) [MMV688943, Difenoconazol]","PGI release, % of the Tx-100 control, 5d",[2]; 5 days of incubation,-4.96%
same,"PGI release, % of the Tx-100 control, 12d",[2]; 12 days of incubation,-0.86%
Cc1cc(NC(=O)c2ccc(Oc3ccc(Cl)cc3O)o2)no1 [MMV688955],"PGI release, % of the Tx-100 control, 5d",[2]; 5 days of incubation,-0.20%
same,"PGI release, % of the Tx-100 control, 12d",[2]; 12 days of incubation,-3.41%
CCc1cc(=O)n(C)c(SC(C)C(=O)Nc2ccc(F)cc2)n1 (centres unmarked) [MMV688980],"PGI release, % of the Tx-100 control, 5d",[2]; 5 days of incubation,-0.26%
same,"PGI release, % of the Tx-100 control, 12d",[2]; 12 days of incubation,0.88%
"CCCCCCCCCCCCCCCCOP(=O)([O-])OCC[N+](C)(C)C [MMV688990, Miltefosine, reference compound]",effect in vitro against E. multilocularis metacestodes,[1]; 2006,ineffective
same,activity in the present in vitro screen (threshold 20% relative activity compared to Tx-100),[2],inactive
same,cytotoxicity at 10 µM,[2]; [5],-1.11%
same,cytotoxicity at 10 µM,[2]; [7],-5.17%
"CC(=O)Oc1ccccc1C(=O)Nc1ncc([N+](=O)[O-])s1 [MMV688991, Nitazoxanide, reference compound]",concentration shown to be active in vitro against metacestodes,"[1]; ref Stettler et al., 2003, Reuter et al., 2006",3.3 µM
same,activity against metacestodes at 1 μM,"[2]; 1 μM, triplicates",did not maintain its activity
same,"PGI release, % of Tx-100 control, average, 5d",[2]; [3],1.35%
same,"PGI release, % of Tx-100 control, average, 12d",[2]; [4],11.08%
same,"activity in the screen at 10 μM (confirmed in triplicates, >20% relative PGI release)",[2],active
same,cytotoxicity at 10 µM,[2]; [5],57.7%
same,"PGI release, % of Tx-100 control at 10 µM",[2]; [6],54.7%
same,cytotoxicity at 10 µM,[2]; [7],75.5%
same,"PGI release, % of Tx-100 control at 10 µM",[2]; [8],71.7%
"[H]/N=C(/N)N[C@H]1[C@H](O)[C@@H](O)[C@H](O[C@@H]2O[C@@H](C)[C@](O)(C=O)[C@H]2O[C@@H]2O[C@@H](CO)[C@H](O)[C@@H](O)[C@@H]2NC)[C@@H](N/C(N)=N\[H])[C@@H]1O [MMV688994, Streptomycin, reference compound]",cytotoxicity at 10 µM,[2]; [5],-0.55%
same,cytotoxicity at 10 µM,[2]; [7],0.19%
"C[C@@H]1[C@H](O)[C@@H](C)/C=C/C=C/C=C/C=C/C=C/C=C/C=C/[C@H](O[C@@H]2O[C@H](C)[C@@H](O)[C@H](N)[C@@H]2O)C[C@@H]2O[C@](O)(C[C@@H](O)C[C@@H](O)[C@H](O)CC[C@@H](O)C[C@@H](O)CC(=O)O[C@H]1C)C[C@H](O)[C@H]2C(=O)O [MMV689000, Amphotericin B, reference compound]",concentration shown to destroy metacestodes in vitro,"[1]; ref Reuter et al., 2003, 2010",2.7 µM
same,cytotoxicity at 10 µM,[2]; [5],34.2%
same,"PGI release, % of Tx-100 control at 10 µM",[2]; [6],-1.34%
same,cytotoxicity at 10 µM,[2]; [7],51.2%
same,"PGI release, % of Tx-100 control at 10 µM",[2]; [8],2.75%
Cc1ccc(S(=O)(=O)Nc2ccc(CN3CCN(C(=O)c4cccc(C#N)c4)CC3)cc2)cc1 [MMV689028],"PGI release, % of the Tx-100 control, 5d",[2]; 5 days of incubation,0.59%
same,"PGI release, % of the Tx-100 control, 12d",[2]; 12 days of incubation,-0.96%
COc1ccc(S(=O)(=O)Nc2ccc(CN3CCN(C(=O)c4cccc(C#N)c4)CC3)cc2)cc1 [MMV689029],"PGI release, % of the Tx-100 control, 5d",[2]; 5 days of incubation,2.51%
same,"PGI release, % of the Tx-100 control, 12d",[2]; 12 days of incubation,-2.23%
Clc1ccc(CN2CCN(C3=NCCN3)CC2)cc1Cl [MMV689060],"PGI release, % of the Tx-100 control, 5d",[2]; 5 days of incubation,0.33%
same,"PGI release, % of the Tx-100 control, 12d",[2]; 12 days of incubation,-1.23%
CC(=O)Nc1ccc(-c2noc(CC3CCCN(Cc4cccc(F)c4C)C3)n2)cc1 (centres unmarked) [MMV689061],"PGI release, % of the Tx-100 control, 5d",[2]; 5 days of incubation,2.22%
same,"PGI release, % of the Tx-100 control, 12d",[2]; 12 days of incubation,1.98%
FC(F)(F)c1ccc(N(c2cccnc2)C2CCN(c3ccc(C(F)(F)F)cn3)CC2)cc1 [MMV689243],"PGI release, % of the Tx-100 control, 5d",[2]; 5 days of incubation,0.34%
same,"PGI release, % of the Tx-100 control, 12d",[2]; 12 days of incubation,10.04%
O=C([C@@H](c1ccc(Cl)cc1)c1cccnc1)N1CCN(c2ccc(C(F)(F)F)cc2)CC1 [MMV689244],"PGI release, % of the Tx-100 control, 5d",[2]; 5 days of incubation,-0.13%
same,"PGI release, % of the Tx-100 control, 12d",[2]; 12 days of incubation,-0.53%
"Nc1ncnc2c1ncn2C[C@@H](O)[C@@H](O)C(=O)O [MMV689255, Eritadenine]",cytotoxicity at 10 µM,[2]; [5],0.0047%
same,cytotoxicity at 10 µM,[2]; [7],0.51%
